Results published in ChEMBL document CHEMBL3734705, “Synthesis and in vitro cytotoxicity of novel C-12 substituted-14-deoxy-andrographolide derivatives as potent anti-cancer agents” (2015).

Key:
[1] = Cytotoxicity against human MOLT4 cells assessed as growth level at 10 uM after 48 hrs by SRB assay; assay type: functional, MOLT-4
[2] = Cytotoxicity against human RPMI8226 cells assessed as growth level at 10 uM after 48 hrs by SRB assay; assay type: functional, RPMI-8226
SR = assay: Cytotoxicity against human SR cells assessed as growth level at 10 uM after 48 hrs by SRB assay; assay type: functional
A549 = assay: Cytotoxicity against human A549 cells assessed as growth level at 10 uM after 48 hrs by SRB assay; assay type: functional
EKVX = assay: Cytotoxicity against human EKVX cells assessed as growth level at 10 uM after 48 hrs by SRB assay; assay type: functional
[3] = Cytotoxicity against human HOP62 cells assessed as growth level at 10 uM after 48 hrs by SRB assay; assay type: functional, HOP-62
[4] = Cytotoxicity against human HOP92 cells assessed as growth level at 10 uM after 48 hrs by SRB assay; assay type: functional, HOP-92
NCI-H226 = assay: Cytotoxicity against human NCI-H226 cells assessed as growth level at 10 uM after 48 hrs by SRB assay; assay type: functional
NCI-H23 = assay: Cytotoxicity against human NCI-H23 cells assessed as growth level at 10 uM after 48 hrs by SRB assay; assay type: functional
NCI-H322M = assay: Cytotoxicity against human NCI-H322M cells assessed as growth level at 10 uM after 48 hrs by SRB assay; assay type: functional
NCI-H460 = assay: Cytotoxicity against human NCI-H460 cells assessed as growth level at 10 uM after 48 hrs by SRB assay; assay type: functional
NCI-H522 = assay: Cytotoxicity against human NCI-H522 cells assessed as growth level at 10 uM after 48 hrs by SRB assay; assay type: functional
[5] = Cytotoxicity against human COLO205 cells assessed as growth level at 10 uM after 48 hrs by SRB assay; assay type: functional, COLO 205
[6] = Cytotoxicity against human HCC2998 cells assessed as growth level at 10 uM after 48 hrs by SRB assay; assay type: functional, HCC 2998
[7] = Cytotoxicity against human HCT116 cells assessed as growth level at 10 uM after 48 hrs by SRB assay; assay type: functional, HCT-116
[8] = Cytotoxicity against human HCT15 cells assessed as growth level at 10 uM after 48 hrs by SRB assay; assay type: functional, HCT-15
HT-29 = assay: Cytotoxicity against human HT-29 cells assessed as growth level at 10 uM after 48 hrs by SRB assay; assay type: functional
KM12 = assay: Cytotoxicity against human KM12 cells assessed as growth level at 10 uM after 48 hrs by SRB assay; assay type: functional
[9] = Cytotoxicity against human SW620 cells assessed as growth level at 10 uM after 48 hrs by SRB assay; assay type: functional, SW-620
[10] = Cytotoxicity against human SF268 cells assessed as growth level at 10 uM after 48 hrs by SRB assay; assay type: functional, SF-268
[11] = Cytotoxicity against human SF295 cells assessed as growth level at 10 uM after 48 hrs by SRB assay; assay type: functional, SF-295
[12] = Cytotoxicity against human SF539 cells assessed as growth level at 10 uM after 48 hrs by SRB assay; assay type: functional, SF-539
[13] = Cytotoxicity against human SNB19 cells assessed as growth level at 10 uM after 48 hrs by SRB assay; assay type: functional, SNB-19
[14] = Cytotoxicity against human SNB75 cells assessed as growth level at 10 uM after 48 hrs by SRB assay; assay type: functional, SNB-75
U-251 = assay: Cytotoxicity against human U251 cells assessed as growth level at 10 uM after 48 hrs by SRB assay; assay type: functional
[15] = Cytotoxicity against human LOXIMVI cells assessed as growth level at 10 uM after 48 hrs by SRB assay; assay type: functional, LOX IMVI
Malme-3M = assay: Cytotoxicity against human MALME-3M cells assessed as growth level at 10 uM after 48 hrs by SRB assay; assay type: functional
M14 = assay: Cytotoxicity against human M14 cells assessed as growth level at 10 uM after 48 hrs by SRB assay; assay type: functional
MDA-MB-435 = assay: Cytotoxicity against human MDA-MB-435 cells assessed as growth level at 10 uM after 48 hrs by SRB assay; assay type: functional
SK-MEL-28 = assay: Cytotoxicity against human SK-MEL-28 cells assessed as growth level at 10 uM after 48 hrs by SRB assay; assay type: functional
SK-MEL-5 = assay: Cytotoxicity against human SK-MEL-5 cells assessed as growth level at 10 uM after 48 hrs by SRB assay; assay type: functional
[16] = Cytotoxicity against human UACC257 cells assessed as growth level at 10 uM after 48 hrs by SRB assay; assay type: functional, UACC-257
[17] = Cytotoxicity against human UACC62 cells assessed as growth level at 10 uM after 48 hrs by SRB assay; assay type: functional, UACC-62
[18] = Cytotoxicity against human IGROV1 cells assessed as growth level at 10 uM after 48 hrs by SRB assay; assay type: functional, IGROV-1
[19] = Cytotoxicity against human OVCAR3 cells assessed as growth level at 10 uM after 48 hrs by SRB assay; assay type: functional, OVCAR-3
[20] = Cytotoxicity against human OVCAR4 cells assessed as growth level at 10 uM after 48 hrs by SRB assay; assay type: functional, OVCAR-4
[21] = Cytotoxicity against human OVCAR5 cells assessed as growth level at 10 uM after 48 hrs by SRB assay; assay type: functional, OVCAR-5
[22] = Cytotoxicity against human OVCAR8 cells assessed as growth level at 10 uM after 48 hrs by SRB assay; assay type: functional, OVCAR-8
[23] = Cytotoxicity against human NCI-ADR-RES cells assessed as growth level at 10 uM after 48 hrs by SRB assay; assay type: functional
[24] = Cytotoxicity against human SKOV3 cells assessed as growth level at 10 uM after 48 hrs by SRB assay; assay type: functional, SK-OV-3
786-0 = assay: Cytotoxicity against human 786-0 cells assessed as growth level at 10 uM after 48 hrs by SRB assay; assay type: functional
A498 = assay: Cytotoxicity against human A498 cells assessed as growth level at 10 uM after 48 hrs by SRB assay; assay type: functional
ACHN = assay: Cytotoxicity against human ACHN cells assessed as growth level at 10 uM after 48 hrs by SRB assay; assay type: functional
[25] = Cytotoxicity against human Caki1 cells assessed as growth level at 10 uM after 48 hrs by SRB assay; assay type: functional, CAKI-1
[26] = Cytotoxicity against human RXF393 cells assessed as growth level at 10 uM after 48 hrs by SRB assay; assay type: functional, RXF 393
SN12C = assay: Cytotoxicity against human SN12C cells assessed as growth level at 10 uM after 48 hrs by SRB assay; assay type: functional
[27] = Cytotoxicity against human TK10 cells assessed as growth level at 10 uM after 48 hrs by SRB assay; assay type: functional, TK-10
[28] = Cytotoxicity against human UO31 cells assessed as growth level at 10 uM after 48 hrs by SRB assay; assay type: functional, UO-31
[29] = Cytotoxicity against human PC3 cells assessed as growth level at 10 uM after 48 hrs by SRB assay; assay type: functional, PC-3
[30] = Cytotoxicity against human DU145 cells assessed as growth level at 10 uM after 48 hrs by SRB assay; assay type: functional, DU-145
MCF7 = assay: Cytotoxicity against human MCF7 cells assessed as growth level at 10 uM after 48 hrs by SRB assay; assay type: functional
MDA-MB-231 = assay: Cytotoxicity against human MDA-MB-231 cells assessed as growth level at 10 uM after 48 hrs by SRB assay; assay type: functional
[31] = Cytotoxicity against human Hs578T cells assessed as growth level at 10 uM after 48 hrs by SRB assay; assay type: functional, Hs-578T
[32] = Cytotoxicity against human BT549 cells assessed as growth level at 10 uM after 48 hrs by SRB assay; assay type: functional, BT-549
T47D = assay: Cytotoxicity against human T47D cells assessed as growth level at 10 uM after 48 hrs by SRB assay; assay type: functional
MDA-MB-468 = assay: Cytotoxicity against human MDA-MB-468 cells assessed as growth level at 10 uM after 48 hrs by SRB assay; assay type: functional
CCRF-CEM = assay: Cytotoxicity against human CCRF-CEM cells assessed as growth level at 10 uM after 48 hrs by SRB assay; assay type: functional
[33] = Cytotoxicity against human HL-60(TB) cells assessed as growth level at 10 uM after 48 hrs by SRB assay; assay type: functional
K562 = assay: Cytotoxicity against human K562 cells assessed as growth level at 10 uM after 48 hrs by SRB assay; assay type: functional
SK-MEL-2 = assay: Cytotoxicity against human SK-MEL-2 cells assessed as growth level at 10 uM after 48 hrs by SRB assay; assay type: functional

C=C1CC[C@@H]2[C@](C)(COC(C)=O)[C@H](OC(C)=O)CC[C@@]2(C)[C@@H]1CC(NCCCCCCCCCCCCCCCCCC)C1=CCOC1=O (mixture of isomers)
Activity [1]: 95.91% | Activity [2]: 101.07% | Activity (SR): 101.94% | Activity (A549): 101.56% | Activity (EKVX): 111.12% | Activity [3]: 96.46% | Activity [4]: 80.59% | Activity (NCI-H226): 92.06% | Activity (NCI-H23): 100.06% | Activity (NCI-H322M): 102.69% | Activity (NCI-H460): 105.91% | Activity (NCI-H522): 98.04% | Activity [5]: 103.75% | Activity [6]: 114% | Activity [7]: 105.04% | Activity [8]: 117.13% | Activity (HT-29): 103.31% | Activity (KM12): 107.75% | Activity [9]: 101.13% | Activity [10]: 100.29% | Activity [11]: 112.48% | Activity [12]: 101.6% | Activity [13]: 102.65% | Activity [14]: 87.94% | Activity (U-251): 101.78% | Activity [15]: 98.11% | Activity (Malme-3M): 111.94% | Activity (M14): 102.16% | Activity (MDA-MB-435): 107% | Activity (SK-MEL-28): 111.23% | Activity (SK-MEL-5): 101.04% | Activity [16]: 108.48% | Activity [17]: 97.28% | Activity [18]: 110.04% | Activity [19]: 103.35% | Activity [20]: 114.35% | Activity [21]: 108.25% | Activity [22]: 104.57% | Activity [23]: 101.33% | Activity [24]: 102.04% | Activity (786-0): 106.62% | Activity (A498): 100.06% | Activity (ACHN): 113.27% | Activity [25]: 97.66% | Activity [26]: 109.25% | Activity (SN12C): 103.39% | Activity [27]: 102.72% | Activity [28]: 88.83% | Activity [29]: 89.57% | Activity [30]: 108.9% | Activity (MCF7): 101.73% | Activity (MDA-MB-231): 96.62% | Activity [31]: 103.17% | Activity [32]: 106.47% | Activity (T47D): 97.23% | Activity (MDA-MB-468): 99.82% | Activity (CCRF-CEM): 104.64% | Activity [33]: 100.5% | Activity (K562): 104.45%

C=C1CC[C@@H]2[C@](C)(COC(C)=O)[C@H](OC(C)=O)CC[C@@]2(C)[C@@H]1CC(NC1CC1)C1=CCOC1=O (mixture of isomers)
Activity [1]: 87.21% | Activity [2]: 70.32% | Activity (SR): 73.84% | Activity (A549): 82.92% | Activity (EKVX): 86.69% | Activity [3]: 102.23% | Activity [4]: 83.7% | Activity (NCI-H226): 106.3% | Activity (NCI-H23): 98.94% | Activity (NCI-H322M): 98.57% | Activity (NCI-H460): 105.35% | Activity (NCI-H522): 78.4% | Activity [5]: 106.86% | Activity [6]: 102.97% | Activity [7]: 88.19% | Activity [8]: 93.63% | Activity (HT-29): 100.7% | Activity (KM12): 90.49% | Activity [9]: 115.37% | Activity [10]: 93.53% | Activity [11]: 97.25% | Activity [12]: 95.4% | Activity [13]: 100.97% | Activity [14]: 90.39% | Activity (U-251): 96.2% | Activity [15]: 94% | Activity (Malme-3M): 89.64% | Activity (M14): 93.67% | Activity (MDA-MB-435): 96.33% | Activity (SK-MEL-2): 104.35% | Activity (SK-MEL-28): 107.72% | Activity (SK-MEL-5): 96.5% | Activity [16]: 100.57% | Activity [17]: 84.5% | Activity [18]: 96% | Activity [19]: 96.85% | Activity [20]: 101.59% | Activity [21]: 110.21% | Activity [22]: 105.48% | Activity [23]: 98.35% | Activity [24]: 102.92% | Activity (786-0): 107.45% | Activity (A498): 102.06% | Activity (ACHN): 98.37% | Activity [25]: 98.25% | Activity [26]: 116.59% | Activity (SN12C): 101.14% | Activity [27]: 98.64% | Activity [28]: 82.44% | Activity [29]: 77.06% | Activity [30]: 98.78% | Activity (MCF7): 85.36% | Activity (MDA-MB-231): 100.99% | Activity [31]: 110.62% | Activity [32]: 86.41% | Activity (T47D): 79.56% | Activity (MDA-MB-468): 91.77% | Activity (CCRF-CEM): 95.35% | Activity [33]: 102.95% | Activity (K562): 74.16%
